In the experiment the test system is Rattus norvegicus. Briefly: Antihyperglycemic activity in sucrose loaded albino Sprague-Dawley rat model assessed as improvement of glucose tolerance by measuring reduction in glucose AUC at 100 mg/kg, po administered 30 mins prior to sucrose load measured for 2 hrs by oral sucrose tolerance test. Format: functional. More on the design: scale not given: the % may be the effect or the level left.
Consider `O=C(O)CC1S/C(=N\N=C/c2cn(-c3ccccc3)nc2-c2ccc(F)cc2)NC1=O` (configuration not stated), for which the Activity is on record as 7.64%.
As to `O=C(O)CC1S/C(=N\N=C/c2cn(-c3ccccc3)nc2-c2ccc(Br)cc2)NC1=O` (configuration not stated), the Activity is recorded as 5.69%.
`O=C(O)CC1S/C(=N\N=C/c2cn(-c3ccccc3)nc2-c2ccc([N+](=O)[O-])cc2)NC1=O` (configuration not stated): the Activity is 7.57%.
`COc1ccc(-c2nn(-c3ccccc3)cc2/C=N\N=C2\NC(=O)C(CC(=O)O)S2)cc1` (configuration not stated): the Activity is 6.97%.
For `O=C(O)CC1S/C(=N\N=C/c2cn(-c3ccccc3)nc2-c2ccc(O)cc2)NC1=O` (configuration not stated), the Activity was 7.97%.
The same measure for `Cc1ccc(-c2nn(-c3ccccc3)cc2/C=N\N=C2\NC(=O)C(CC(=O)O)S2)cc1` (configuration not stated): 6.09%; for `CN(C)C(=N)NC(=N)N` [METFORMIN]: 14.1%.

For the origin of these results see ChEMBL document CHEMBL3286142, “Synthesis and antihyperglycemic evaluation of new 2-hydrazolyl-4-thiazolidinone-5-carboxylic acids having pyrazolyl pharmacophores” (2014).
